Patent publication US7351731B2, “Azole derivatives and methods for making the same” (Board of Governors for Higher Education, State of Rhode …, priority 2005, dated 2008)
Converted amounts (≈) assume the structure as drawn.

Assays:
C. albicans ATCC 14053 [1] = experiment: MIC microdilution susceptibility testing, C. albicans in SDB; type: cell-based, Candida albicans; conditions: 24-48 h, average of three experiments; for MIC: Candida albicans
Protocol: (§1) Microorganisnis. […] Stock cultures were kept on Sabouraud dextrose agar (SDA; Becton-Dickinson and Co., Sparks, Md.). Subcultures were prepared on SDA at 35-37° C. Suspension cultures were prepared by inoculation of single colonies in 7 ml of normal saline solution.
(§2) Test compounds were dissolved in DMSO (0.56 mg/ml) and stored at 0° C. Working dilutions were made in RPMI or SDB medium. […] The final maximum concentration of DMSO in the assays was 5% (v/v).
(§3) Microdilutions for control experiments with C. albicans, A. niger, and C. neoformans were the modified method of National Committee for Clinical Laboratory Standards (NCCLS) method as described by Galgiani and by the more recent NCCLS M27-A microdilution methods as described previously. Galgiani, J. N. Antimicrob. Agents Chemother. […] Reference method for broth dilution antifungal susceptibility testing for yeasts. Approval standard. […] 9; C. arballeira, N. M., et al. Arch. Pharm.-Pharm. […] Dilutions were prepared in 0.1 ml of RPMI or SDB; the inocula were either 10^4 C. albicans or C. neoformans cells or A. niger spores. The tubes were incubated for 24-48 h at 36±1° C., and turbidity was read visually.

C. neoformans ATCC 66031 = experiment: MIC microdilution susceptibility testing, C. neoformans in SDB; type: cell-based, Cryptococcus neoformans; conditions: SDB medium, 35-37° C., 24-48 h, average of three experiments; for MIC: Cryptococcus neoformans, ATCC66031
Protocol: as §1, §2, §3

C. albicans ATCC 14053 [2] = experiment: MIC microdilution susceptibility testing, C. albicans in RPMI; type: cell-based, Candida albicans; conditions: for MIC: Candida albicans
Protocol: as §1, §2, §3

A. niger ATCC 16404 = experiment: MIC microdilution susceptibility testing, A. niger in SDB; type: cell-based, Aspergillus niger; conditions: SDB medium, 35-37° C., 24-48 h, average of three experiments; for MIC: Aspergillus niger, ATCC16404
Protocol: as §1, §2, §3

[3] = ATCC14053, SDB medium pH 5.6, 35-37° C.
[4] = ATCC14053, pH 6.9, read-out: MIC C. albicans ATCC 14053, RPMI
[5] = ATCC14053, pH 5.6, SDB medium pH 5.6, 35-37° C.
[6] = ATCC14053, RPMI medium pH 6.9, 35-37° C., 24-48 h, average of three experiments, read-out: MIC C. albicans ATCC 14053, RPMI
[7] = RPMI medium pH 6.9, 35-37° C., 24-48 h, average of three experiments

Row | Compound | MIC (C. albicans ATCC 14053 [1]; [3]) [µg/mL] | MIC (C. neoformans ATCC 66031) [µg/mL] | MIC (C. albicans ATCC 14053 [2]; [4]) [µg/mL] | MIC (A. niger ATCC 16404) [µg/mL] | MIC (C. albicans ATCC 14053 [1]; [5]) [µg/mL] | MIC (C. albicans ATCC 14053 [2]; [6]) [µg/mL] | MIC C. albicans ATCC 14053, SDB (C. albicans ATCC 14053 [1]; SDB medium pH 5.6, 35-37° C.) | MIC C. albicans ATCC 14053, RPMI (C. albicans ATCC 14053 [2]; [7]) | MIC A. niger ATCC 16404, SDB (A. niger ATCC 16404) | MIC C. neoformans ATCC 66031, SDB (C. neoformans ATCC 66031)
1 | CCC(Br)C(=O)O (stereo not shown) [2-Bromobutyric acid, reference compound] | > 513 | > 513 | 513 (≈ 3070 µM) | – | – | – | – | – | – | –
2 | CCCCC(Br)C(=O)O (stereo not shown) [2-Bromohexanoic acid, reference compound] | 710 (≈ 3640 µM) | 355 (≈ 1820 µM) | ≥ 710 | 710 (≈ 3640 µM) | – | – | – | – | – | –
3 | CCCCCCCCCCC(Br)C(=O)O (stereo not shown) [2-Bromolauric acid, reference compound] | – | 19 (≈ 68 µM) | – | 78 (≈ 279 µM) | 155 (≈ 555 µM) | 155 (≈ 555 µM) | – | – | – | –
4 | CCCCCCCCCCCCC(Br)C(=O)O (stereo not shown) [2-Bromomyristic acid, reference compound] | – | 15 (≈ 48.8 µM) | – | 68 (≈ 221 µM) | > 540 | 12 (≈ 39.1 µM) | – | – | – | –
5 | CC(Br)C(=O)Cl (stereo not shown) [2-Bromopropionyl chloride, reference compound] | – | 117 | – | 468 | 468 | 468 | – | – | – | –
6 | CCCC(Br)C(=O)O (stereo not shown) [2-Bromovaleric acid, reference compound] | – | 290 (≈ 1600 µM) | – | ≥ 578 | 578 (≈ 3190 µM) | ≥ 578 | – | – | – | –
7 | OCCCCCCCCCCCBr [11-Bromoundecanol, reference compound] | – | 12 (≈ 47.8 µM) | – | 24 (≈ 95.5 µM) | 95 (≈ 378 µM) | – | – | – | – | –
8 | C[C@@H]1[C@H](O)[C@@H](C)/C=C/C=C/C=C/C=C/C=C/C=C/C=C/[C@H](O[C@@H]2O[C@H](C)[C@@H](O)[C@H](N)[C@@H]2O)C[C@@H]2O[C@](O)(C[C@@H](O)C[C@@H](O)[C@H](O)CC[C@@H](O)C[C@@H](O)CC(=O)O[C@H]1C)C[C@H](O)[C@H]2C(=O)O [AMB, amphotericin B, reference compound] | – | – | – | – | – | – | 1.5 µg/mL (≈ 1.62 µM) | 0.7 µg/mL (≈ 0.758 µM) | 0.4 µg/mL (≈ 0.433 µM) | –
9 | CC(=O)O [Acetic acid, reference compound] | – | ≥ 220 | – | ≥ 220 | ≥ 220 | ≥ 220 | – | – | – | –
10 | Fc1ccc(C(Br)(Cn2cncn2)Cn2cncn2)c(F)c1 [Br] | – | 22 (≈ 59.6 µM) | – | 701 (≈ 1900 µM) | > 701 | 701 (≈ 1900 µM) | – | – | – | –
11 | Fc1ccc(C(Cl)(Cn2cncn2)Cn2cncn2)c(F)c1 [Cl] | – | 28 (≈ 86.2 µM) | – | 883 (≈ 2720 µM) | > 883 | 1140 (≈ 3500 µM) | – | – | – | –
12 | CCCCCCCCCCCO [Compound 1-Undecanol, 1-Undecanol, reference compound] | – | 28 (≈ 162 µM) | – | 87 (≈ 505 µM) | 87 (≈ 505 µM) | – | – | – | – | –
13 | CC(=O)OC(Cn1cncn1)(Cn1cncn1)c1ccc(F)cc1F [Compound 1a, O-Acetylfluconazole] | – | – | – | – | – | – | 1,420 μg/mL | >1,420 μg/mL | ≧1,420 μg/mL | >1,420 μg/mL
14 | CCCCCCCCCCCCCC(=O)OC(Cn1cncn1)(Cn1cncn1)c1ccc(F)cc1F [Compound 1b, O-Tetradecanoylfluconazole] | – | – | – | – | – | – | 718 µg/mL (≈ 1390 µM) | 718 µg/mL (≈ 1390 µM) | ≧718 μg/mL | 718 µg/mL (≈ 1390 µM)
15 | CC(Br)C(=O)OC(Cn1cncn1)(Cn1cncn1)c1ccc(F)cc1F (stereo not shown) [Compound 1c, O-2-Bromopropionylfluconazole] | – | – | – | – | – | – | 656 µg/mL (≈ 1490 µM) | 656 µg/mL (≈ 1490 µM) | >656 µg/mL | 656 µg/mL (≈ 1490 µM)
16 | CCC(Br)C(=O)OC(Cn1cncn1)(Cn1cncn1)c1ccc(F)cc1F (stereo not shown) [Compound 1d, O-2-Bromobutyrylfluconazole] | – | – | – | – | – | – | 636 µg/mL (≈ 1400 µM) | 319 µg/mL (≈ 701 µM) | ≧1,276 μg/mL | >1,276 μg/mL
17 | CCCC(Br)C(=O)OC(Cn1cncn1)(Cn1cncn1)c1ccc(F)cc1F (stereo not shown) [Compound 1e, O-2-Bromovaleroylfluconazole] | – | – | – | – | – | – | 552 µg/mL (≈ 1180 µM) | 275 µg/mL (≈ 586 µM) | ≧1,100 μg/mL | 1,100 μg/mL

Row | Compound | MIC (C. albicans ATCC 14053 [1]; [3]) [µg/mL] | MIC (C. neoformans ATCC 66031) [µg/mL] | MIC (C. albicans ATCC 14053 [2]; [4]) [µg/mL] | MIC (A. niger ATCC 16404) [µg/mL] | MIC (C. albicans ATCC 14053 [1]; [5]) [µg/mL] | MIC (C. albicans ATCC 14053 [2]; [6]) [µg/mL] | MIC C. albicans ATCC 14053, SDB (C. albicans ATCC 14053 [1]; SDB medium pH 5.6, 35-37° C.) | MIC C. albicans ATCC 14053, RPMI (C. albicans ATCC 14053 [2]; [7]) | MIC A. niger ATCC 16404, SDB (A. niger ATCC 16404) | MIC C. neoformans ATCC 66031, SDB (C. neoformans ATCC 66031)
18 | CCCCC(Br)C(=O)OC(Cn1cncn1)(Cn1cncn1)c1ccc(F)cc1F (stereo not shown) [Compound 1f, O-2-Bromohexanoylfluconazole] | – | – | – | – | – | – | 492 µg/mL (≈ 1020 µM) | 61 µg/mL (≈ 126 µM) | ≧979 μg/mL | 492 µg/mL (≈ 1020 µM)
19 | CCCCCCCCCCC(Br)C(=O)OC(Cn1cncn1)(Cn1cncn1)c1ccc(F)cc1F (stereo not shown) [Compound 1h, O-2-Bromolauroylfluconazole] | – | – | – | – | – | – | 1,466 μg/mL | 1,466 μg/mL | ≧1,466 μg/mL | 1,466 μg/mL
20 | CCCCCCCCCCCCC(Br)C(=O)OC(Cn1cncn1)(Cn1cncn1)c1ccc(F)cc1F (stereo not shown) [Compound 1i, O-2-Bromomyristoylfluconazole] | – | – | – | – | – | – | 731 µg/mL (≈ 1230 µM) | 731 µg/mL (≈ 1230 µM) | >731 µg/mL | 731 µg/mL (≈ 1230 µM)
21 | O=C(OCCCl)OC(Cn1cncn1)(Cn1cncn1)c1ccc(F)cc1F [Compound 1k, O-2-Chloroethyloxycarbonylfluconazole] | – | – | – | – | – | – | >977 µg/mL | 977 µg/mL (≈ 2370 µM) | >977 µg/mL | >977 µg/mL
22 | O=C(OC(Cn1cncn1)(Cn1cncn1)c1ccc(F)cc1F)c1ccccc1O [Compound 1l, O-Salicylfluconazole] | – | – | – | – | – | – | >1,212 μg/mL | ≧1,212 μg/mL | >1,212 μg/mL | >1,212 μg/mL
23 | CC(=O)OC[C@H]1O[C@@H](OP(=O)(OCCC#N)OC(Cn2cncn2)(Cn2cncn2)c2ccc(F)cc2F)[C@H](OC(C)=O)[C@@H](OC(C)=O)[C@@H]1OC(C)=O (stereo partly drawn) [Compound 4a, 2-Cyanoethyl-[1-(β-D-2,3,4,6-glucosyltetraacetate)]fluconazole phosphate] | – | – | – | – | – | – | 1,999 μg/mL | – | 1,999 μg/mL | 551 µg/mL
24 | CC(=O)N[C@H]1[C@H](OP(=O)(OCCC#N)OC(Cn2cncn2)(Cn2cncn2)c2ccc(F)cc2F)O[C@H](COC(C)=O)[C@@H](OC(C)=O)[C@@H]1OC(C)=O (stereo partly drawn) [Compound 4b, 2-Cyanoethyl-[1-(2-acetamido-2-deoxy-3,4,6-tri-O-acetyl-β-D-glucopyranosidyl)]fluconazole phosphate] | – | – | – | – | – | – | >3,399 μg/mL | – | 1,699 μg/mL | 306 µg/mL
25 | [N-]=[N+]=NC(Cn1cncn1)(Cn1cncn1)c1ccc(F)cc1F [Compound N3] | – | 19 (≈ 57.4 µM) | – | 610 (≈ 1840 µM) | > 610 | > 610 | – | – | – | –
26 | CCCCCCCCCC(=O)O [Decanoic acid, reference compound] | – | – | – | < 12 | 99 (≈ 575 µM) | 791 (≈ 4590 µM) | – | – | – | –
27 | OC(Cn1cncn1)(Cn1cncn1)c1ccc(F)cc1F [FLC, 1,3-bis(1H-1,2,4-triazol-1-yl)-2-(2,4-difluorophenyl)-propan-2-ol, reference compound] | – | 2.4 (≈ 7.84 µM) | – | > 580 | ≥ 4440 | 2.3 (≈ 7.51 µM) | – | – | – | –
28 | Fc1ccc(C(I)(Cn2cncn2)Cn2cncn2)c(F)c1 [I] | – | 47 (≈ 113 µM) | – | 749 (≈ 1800 µM) | > 749 | 749 (≈ 1800 µM) | – | – | – | –
29 | CS(=O)(=O)C(Cn1cncn1)(Cn1cncn1)c1ccc(F)cc1F [Mesyl] | – | 40 (≈ 109 µM) | – | 1290 (≈ 3500 µM) | 1290 (≈ 3500 µM) | 645 (≈ 1750 µM) | – | – | – | –
30 | Fc1ccc(C(S)(Cn2cncn2)Cn2cncn2)c(F)c1 [SH] | – | 339 (≈ 1050 µM) | – | > 3730 | 1860 (≈ 5780 µM) | – | – | – | – | –
31 | CCCCCCCCCCCCCC(=O)O [Tetradecanoic acid, reference compound] | – | > 529 | – | > 529 | 1750 (≈ 7660 µM) | > 876 | – | – | – | >529 µg/mL
32 | CCCCCCCCCCCCCCO [Tetradecanol, reference compound] | – | 14 (≈ 65.3 µM) | – | 27 (≈ 126 µM) | 1720 (≈ 8020 µM) | – | – | – | – | –
33 | Cc1ccc(S(=O)(=O)C(Cn2cncn2)(Cn2cncn2)c2ccc(F)cc2F)cc1 [Tosyl] | – | 46 (≈ 103 µM) | – | > 731 | > 731 | 365 (≈ 821 µM) | – | – | – | –
34 | C=CCCCCCCCCCO [ω-Undecylenyl alcohol, reference compound] | – | – | – | – | – | – | 110 µg/mL (≈ 646 µM) | – | 27 µg/mL (≈ 159 µM) | 14 µg/mL (≈ 82.2 µM)
